This note sets out measurements from the METLIN SMRT retention time set (Domingo-Almenara et al. 2019).

The structures appear in SMILES notation.

This data set is described as follows: gradient 5% acetonitrile 3 min, to 50% in 2 min, to 85% in 15 min, held 3 min, 100 µL/min. Conditions: column: Zorbax Extend-C18 2.1 x 50 mm; eluents: water / acetonitrile, 0.1% formic acid. The gist of the method: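 Pure standards were analyzed in mixtures of ~100 molecules using HPLC coupled to a quadrupole time-of-flight mass spectrometer, in both positive and negative ionization mode. Separation used a Zorbax Extend-C18 column (2.1 × 50 mm, 1.8 μm) at 100 μL/min, with water and acetonitrile each containing 0.1% formic acid. Dead and dwell volumes were 40 μL and 900 μL, and data were collected over 3 months. Retention time was read from computationally picked adduct peaks, each inspected manually.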
For `COc1cc(NC(=O)c2nc(C)oc2C)cc(OC)c1`, the RP-LC retention time is 750 s.

Compound `O=C(NC1CCCCCC1)c1ccc(CN2CCN(Cc3ccccc3)C(=O)C2=O)cc1` displayed an RP-LC retention time of 812 s. Compound `Cc1nc(-c2csc(S(=O)(=O)N3CCCC(C(=O)Nc4ccc(C)c(Cl)c4)C3)c2)no1` (stereo not drawn) yielded an RP-LC retention time of 940 s. In the case of `Cc1ccc(C)c(NC(=O)Cn2ncc3c(c2=O)N(CC2CC2)C(=O)CS3)c1`, the RP-LC retention time turned out to be 812 s. As to `Cc1cccc(-c2nnc(C)c(NCc3ccc(C)o3)n2)c1`, the RP-LC retention time turned out to be 736 s.

`COc1ccc(N2CCN(C(=O)c3cn(-c4ccc(NC(C)=O)cn4)cn3)CC2)cc1` returned an RP-LC retention time of 617 s. `CN(C1=NC(=O)/C(=C/c2cc(Cl)ccc2OCC(=O)O)S1)c1ccc(O)cc1` yielded an RP-LC retention time of 669 s. In turn, `CC(C)C(=O)N1CCc2cc(C(N)=O)ccc21` displayed an RP-LC retention time of 637 s. Next, `CCN1CCN(C(=O)C2CCN(S(=O)(=O)c3c(C)nn(-c4ccc(Cl)cc4)c3C)CC2)CC1`: 670 s; `Cc1cccc(CN2CCCn3nc(C(=O)NCCCOC(C)C)cc3C2=O)c1`: 842 s. Turning to `CCCNC(=O)C1CCN(c2cc(SCC(=O)Nc3cccc(CC)c3)ncn2)CC1`, the RP-LC retention time was determined as 810 s. With `COC(=O)c1c(C)[nH]c(C(=O)N2CCC(CC(=O)NCCC(C)C)CC2)c1C`, the RP-LC retention time was found to be 716 s. Regarding `Cc1[nH]c(-c2ccccc2)cc1C(=O)N1CCCCCC1`, the RP-LC retention time was found to be 896 s. As for `CCOC(=O)C1=C(C)N(CC(=O)NC(C)CC)c2ncnn2C1c1ccc(C)cc1` (stereo not drawn), the RP-LC retention time was 910 s.

`COc1ccc(-c2ncccc2CNS(=O)(=O)c2ccc(C(F)(F)F)cc2)cc1`: the RP-LC retention time was 764 s. Turning to `NS(=O)(=O)OC[C@@H]1C[C@@H](n2ccc3c(N[C@H]4CCc5ccccc54)ncnc32)C[C@H]1O`, the RP-LC retention time was 724 s. To `COCCc1noc(-c2cnc3nc(C)ccc3c2NC2CCCCCC2)n1` belongs 734 s; to `O=C(Cc1ccsc1)NCCC1CCN(C(=O)Nc2ccc(F)cc2F)CC1`, 766 s; to `Fc1ccc(C(OCCN2CCN(CCCc3ccccc3)CC2)c2ccc(F)cc2)cc1`, 957 s. `Cc1cc(NC(=O)C2CCCN(c3nccnc3Oc3ccccc3)C2)ccc1Br` (stereo not drawn) showed an RP-LC retention time of 989 s. For `COc1cccc(Cn2c(=O)c3sccc3n(Cc3nc(-c4ccc(Cl)c(F)c4)no3)c2=O)c1`, the RP-LC retention time was determined as 1180 s. For the compound `COc1cccc(Nc2c(-c3ccc(Cl)cc3)nc3cnccn23)c1`, the RP-LC retention time is 961 s. The compound `O=c1n(Cc2ccccc2)nc2n1CCN(S(=O)(=O)c1ccc3c(c1)CCC3)CC2` gave an RP-LC retention time of 931 s.

For `Cc1ccc(CS(=O)Cc2ccc(C(=O)NCCN(C)C)o2)cc1` (stereo not drawn), the RP-LC retention time came to 587 s. To `COc1ccc(S(=O)(=O)N2CCN(CCc3cn(C)c4ncccc34)CC2)cc1` belongs 609 s. `C=CCN1C(=O)C(C)(C)COc2ccc(NC(=O)Oc3ccccc3)cc21` came in with an RP-LC retention time of 960 s. As to `CCCn1cc(C2=CCN(S(=O)(=O)c3ccc(NC(C)=O)cc3)CC2)c2cccnc21`, the RP-LC retention time stood at 865 s. To `O=C(Cn1cnc(-c2cccs2)cc1=O)NCCn1nc(-c2cccs2)ccc1=O` belongs 666 s. To `COc1cc(-c2noc(Cn3ccnc3C)n2)cc(OC)c1OC` belongs 596 s; to `CSc1cccc(NC(=O)N2CCc3c(c(-c4nc(C5CC5)no4)nn3C)C2)c1`, 883 s; to `CSc1ccc(-c2nc3cc(C)ccn3c2Nc2ccc(Cl)cc2)cc1`, 840 s.

Compound `CCn1cc(Br)c(C(=O)Nc2ccc(F)c(Cl)c2)n1` came in with an RP-LC retention time of 1020 s. With `CCCN(CC1CCOC1)S(=O)(=O)c1cccc(C(F)(F)F)c1` (stereo not drawn), the RP-LC retention time was 1000 s. Take `CCc1ccc(C(=O)N2CCC(n3c(-c4ccoc4)nc4cccnc43)C2)cc1` (stereo not drawn): the RP-LC retention time worked out at 809 s. Next, `CCOC(=O)c1nc(NCCCN2CCC(Cc3ccccc3)CC2)c2ccccc2n1`: 690 s.

`CCOC(=O)c1c(C)[nH]c(C(=O)N2CCC(CC(=O)NCC3CCCO3)CC2)c1C` (stereo not drawn) came in with an RP-LC retention time of 657 s. Compound `COc1ccc(C(=O)NC2CCN(c3cc(-c4ccc(Cl)cc4)[nH]n3)C2)c(OC)c1` (stereo not drawn) displayed an RP-LC retention time of 754 s. The compound `Cc1ccnc(Nc2nc(C)c3ccccc3n2)n1` returned an RP-LC retention time of 580 s. To `COC(=O)C(Cc1c[nH]c2ccccc12)NC(=O)c1ccc(Br)cc1` (stereo not drawn) belongs 931 s; to `O=C(Cn1nc2c(cc1=O)CCCCC2)NCCc1c[nH]c2ccc(F)cc12`, 794 s. Next, `COC(=O)c1cc(C)nc2c1c(=O)n(Cc1cc(C)ccc1C)c(=O)n2Cc1ccco1`: 1170 s; `COCCN(Cc1ccsc1)C(=O)C1(c2cccs2)CCCC1`: 1070 s; `Cn1cc(C2=CCN(S(=O)(=O)c3cccc4cccnc34)CC2)c2cccnc21`: 889 s. In turn, `CCCCn1c(CN2CCOCC2)nc2cc(NC(=O)CC(C)C)ccc21` had an RP-LC retention time of 665 s. In turn, `Cc1csc(-c2cn(CC(=O)Nc3ccc(C)c(F)c3)cn2)n1` returned an RP-LC retention time of 728 s. To `CCn1cc(-c2ccnc3[nH]c(-c4cccc(CN(C)C)c4)cc23)c(-c2ccc(NC(=O)N(C)C)cc2)n1` belongs 632 s; to `Cc1ccc(-c2csc(NC(=O)CCCOc3ccc(Cl)cc3Cl)n2)cc1`, 1290 s; to `COc1ccc(-c2nnc(-c3ccc(C)c(S(=O)(=O)N4CCCCC4)c3)o2)cc1OC`, 1060 s.

`COc1ccc(Br)cc1-c1nnc2n(C)c3c(=O)n(C)c(=O)n(C)c3n12` registered an RP-LC retention time of 641 s. To `Cc1[nH]c(C(=O)N2CCC(CC(=O)N3CCCC3)CC2)c(C)c1C(=O)OC(C)C` belongs 735 s.

`O=C1CCCc2cc(S(=O)(=O)N3CCC(C(=O)NC4CCCc5ccccc54)CC3)ccc2N1` (stereo not drawn) registered an RP-LC retention time of 795 s.

Compound `CN1C(=O)CCc2cc(NS(=O)(=O)c3ccc(Cl)c(Cl)c3)ccc21` registered an RP-LC retention time of 1040 s. For `Cc1ccc(S(=O)(=O)N2C[C@@H](F)C[C@H]2C(=O)N2CCc3ccccc3C2)cc1`, the RP-LC retention time came to 923 s. The compound `CCCc1ccc(S(=O)(=O)N2CCC3(CC2)NCCN=C3NCc2ccccc2OC)cc1` returned an RP-LC retention time of 836 s. `Cc1cccc(NC(=O)Cn2ncn3c(C)c(C(=O)NCC(C)C)c(C)c3c2=O)c1` registered an RP-LC retention time of 594 s. The compound `COc1ccc(C2C(C(=O)N3CCCCCC3)c3cc(OC)c(OC)cc3C(=O)N2C)cc1OC` (stereo not drawn) displayed an RP-LC retention time of 748 s. `CCNc1nc(C)cc(N2CCN(S(=O)(=O)c3ccc(OC)c(C)c3)CC2)n1` returned an RP-LC retention time of 723 s. Turning to `O=C(Cc1nnc(-c2cnccn2)o1)Nc1cccc(F)c1`, the RP-LC retention time worked out at 679 s.
